Like-named read-outs stand apart in the source and are kept apart here.
Key:
[1] = target: FAK (Mus musculus, UniProt P34152); assay: Phos IC50 (phosphorylation); format: cell-based
[2] = target: Focal Adhesion Kinase (FAK) (Homo sapiens, UniProt Q05397); assay: FAK assay system (Focal Adhesion Kinase inhibition); format: biochemical; settings: read-out: FAK IC50
[3] = system: Mouse mammary carcinoma 4T1 cells; assay: Anchorage-independent tumor cell growth assay; format: cell-based
Protocol: Cells are cultured for 2 h and inhibitors are added at various concentrations in a final concentration of 0.1% DMSO. After 48 h, cell growth is assayed with the cell counting kit-8 (Wako Pure Chemical), which uses a water soluble tetrazolium salt WST8. Twenty μL of the reagent is added into each well and cells are further cultured for 2 h. The optical density is measured at 450 nm.

Sequence of Focal Adhesion Kinase (FAK) (Q05397 384-706): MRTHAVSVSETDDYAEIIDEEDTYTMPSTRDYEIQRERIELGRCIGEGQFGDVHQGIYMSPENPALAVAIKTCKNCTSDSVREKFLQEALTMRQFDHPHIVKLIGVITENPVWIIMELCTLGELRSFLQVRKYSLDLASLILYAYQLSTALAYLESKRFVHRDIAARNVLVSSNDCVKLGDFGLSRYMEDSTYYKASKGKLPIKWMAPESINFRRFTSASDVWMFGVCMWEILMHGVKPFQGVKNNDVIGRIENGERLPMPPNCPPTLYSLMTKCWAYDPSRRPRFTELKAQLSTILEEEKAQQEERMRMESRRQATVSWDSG
Sequence of FAK (P34152 2-1052): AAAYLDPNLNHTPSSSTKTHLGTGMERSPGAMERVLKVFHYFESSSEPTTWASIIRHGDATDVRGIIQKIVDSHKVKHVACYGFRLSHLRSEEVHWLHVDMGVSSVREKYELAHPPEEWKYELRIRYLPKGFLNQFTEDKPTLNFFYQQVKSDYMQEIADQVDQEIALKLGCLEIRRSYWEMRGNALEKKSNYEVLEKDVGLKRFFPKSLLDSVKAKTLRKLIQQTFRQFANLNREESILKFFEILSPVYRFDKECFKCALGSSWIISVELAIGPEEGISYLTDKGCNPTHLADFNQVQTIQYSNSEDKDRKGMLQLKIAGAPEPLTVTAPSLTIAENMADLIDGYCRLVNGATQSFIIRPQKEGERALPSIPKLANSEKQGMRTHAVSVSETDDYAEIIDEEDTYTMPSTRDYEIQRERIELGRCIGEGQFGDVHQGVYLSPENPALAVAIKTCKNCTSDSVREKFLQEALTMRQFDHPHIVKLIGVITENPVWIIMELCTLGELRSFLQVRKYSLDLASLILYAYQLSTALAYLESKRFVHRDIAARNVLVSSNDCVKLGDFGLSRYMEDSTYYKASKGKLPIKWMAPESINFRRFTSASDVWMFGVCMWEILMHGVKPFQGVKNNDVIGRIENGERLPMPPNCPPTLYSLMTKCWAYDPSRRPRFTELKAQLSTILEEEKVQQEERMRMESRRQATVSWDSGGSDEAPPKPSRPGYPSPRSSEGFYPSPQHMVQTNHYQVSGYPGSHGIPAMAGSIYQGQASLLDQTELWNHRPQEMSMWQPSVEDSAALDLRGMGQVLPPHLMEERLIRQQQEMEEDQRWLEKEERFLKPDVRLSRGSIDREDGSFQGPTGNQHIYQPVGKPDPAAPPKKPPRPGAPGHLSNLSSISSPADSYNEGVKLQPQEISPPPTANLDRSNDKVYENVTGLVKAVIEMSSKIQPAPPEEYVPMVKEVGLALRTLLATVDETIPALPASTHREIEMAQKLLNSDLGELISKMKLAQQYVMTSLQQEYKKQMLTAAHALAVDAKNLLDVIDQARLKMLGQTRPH

| SMILES | IC50 [1] [µM] | IC50 [2] [µM] | IC50 ([3]; Mus musculus, 4T1) [µM] | IC50 [3] [µM] |
| --- | --- | --- | --- | --- |
| CNS(=O)(=O)c1ccccc1Nc1nc(Nc2ccc(N3CCSCC3)cc2OC)ncc1Br [Example 3-41] | > 10 | 0.022 | 0.43 |  |
| NS(=O)(=O)c1ccccc1Nc1nc(Nc2cccc3c2OC(F)(F)O3)ncc1Br [Compound 6, 2-[5-Bromo-2-(2,3-[difluoromethylenedioxy]phenylamino)-pyrimidin-4-ylamino]-benzenesulfonamide] | 0.35 | 0.11 | 5 |  |
| CCC(CC)NS(=O)(=O)c1ccccc1Nc1nc(Nc2ccc(OCCN3CCN(C)CC3)cc2OC)ncc1Cl [Example 23-9] | 0.2 | 0.0021 | 0.28 |  |
| COc1cc(NC2CCN(C)CC2)ccc1Nc1ncc(Cl)c(Nc2ccccc2S(=O)(=O)NC(C)C)n1 [Example 19-32] | 0.2 | 0.0014 | 0.31 |  |
| CCCS(=O)(=O)c1ccccc1Nc1nc(Nc2ccc(N3CCC[C@H](C(N)=O)C3)cc2OC)ncc1Cl [Example 26-12] | 0.2 | 0.0037 | 0.19 |  |
| CNC(=O)c1ccccc1Nc1nc(Nc2cccc3[nH]ccc23)ncc1Cl [Example 7-27] | 0.5 | 0.021 | 0.22 |  |
| CNS(=O)(=O)c1ccccc1Nc1nc(Nc2cc(OCCN3CCOCC3)ccc2OC)ncc1Cl [Example 20-21] | 3 | 0.026 | 0.68 |  |
| CNS(=O)(=O)c1ccccc1Nc1nc(Nc2cc(F)ccc2F)ncc1Br [Example 3-77] | > 10 | 0.065 | 3 |  |
| CNC(=O)c1ccccc1Nc1nc(Nc2cc(N3CCOCC3)ccc2OC)ncc1Br [Example 8-1] | 0.6 | 0.0066 | 0.33 |  |
| CNS(=O)(=O)c1ccccc1Nc1nc(Nc2ccc(N(CCOC)CCOC)cc2OC)ncc1Br [Example 3-42] | 0.35 | 0.029 | 0.3 |  |
| CNC(=O)c1ccccc1Nc1nc(Nc2cccc3c2ccn3C)ncc1Cl [Example 7-28] | 1 | 0.034 | 0.15 |  |
| CCC(CC)NS(=O)(=O)c1ccccc1Nc1nc(Nc2ccc(N3CCOCC3)cc2OC)ncc1Cl [Example 23-6] | 1 | 0.016 | 0.57 |  |
| CNS(=O)(=O)c1ccccc1Nc1nc(Nc2cc(OC)ccc2OCCOC)ncc1Br [Example 3-59] | 1.2 | 0.095 | > 10 |  |
| CCCCCS(=O)(=O)c1ccccc1Nc1nc(Nc2ccc(N3CCOCC3)cc2OC)ncc1Cl [Example 34-3] | 0.19 | 0.033 | 2.25 |  |
| COc1cc(N2CCC(N3CCCCC3)CC2)ccc1Nc1ncc(Cl)c(Nc2ccccc2S(=O)(=O)C(C)C)n1 [Example 28-8] | 0.4 | 0.0046 | 0.37 |  |
| COCC1CCN(c2ccc(Nc3ncc(Cl)c(Nc4ccccc4S(=O)(=O)C(C)C)n3)c(OC)c2)CC1 [Example 28-10] | 3 | 0.02 |  | 1.85 |
| CNC(=O)c1cc(F)ccc1Nc1nc(Nc2cccc3c2ccn3C)ncc1Cl [Example 11-3] | 0.41 | 0.026 | 0.1 |  |
| COc1cc(N2CCC[C@@H](C(N)=O)C2)ccc1Nc1ncc(Cl)c(Nc2ccccc2S(=O)(=O)C2CC2)n1 [Example 30-6] | 1 | 0.015 | 1.03 |  |
| CNS(=O)(=O)c1ccccc1Nc1nc(Nc2cccc3c2CCCC3)ncc1Br [Example 3-31] | 1.1 | 0.013 | 5 |  |
| CCOc1ccc(-c2ccc(OC)cc2)cc1Nc1ncc(Br)c(Nc2ccccc2S(=O)(=O)NC)n1 [Example 3-30] | 0.6 | 0.069 | 3 |  |
| CNS(=O)(=O)c1ccccc1Nc1nc(Nc2cc(OC3CCN(C(C)=O)CC3)ccc2OC)ncc1Br [Example 3-75] | 0.5 | 0.072 | 1.3 |  |
| CNS(=O)(=O)c1ccccc1Nc1nc(Nc2ccc(N3CCNCC3)cc2OC)ncc1Br [Example 3-47] | 0.1 | 0.001 | 0.06 |  |
| COc1cc(N2CCC(N(C)C)C2)ccc1Nc1ncc(Cl)c(Nc2ccccc2S(=O)(=O)C(C)C)n1 (stereo not drawn) [Example 28-22] | 0.1 | 0.0013 | 0.3 |  |
| COc1cc(OC2CCN(C)CC2)ccc1Nc1ncc(Cl)c(Nc2ccccc2S(=O)(=O)NC(C)C)n1 [Example 19-7] | 0.3 | 0.0021 | 0.11 |  |
| COc1cc(N2CCOCC2)ccc1Nc1ncc(Cl)c(Nc2ccccc2S(=O)(=O)C2CCCCC2)n1 [Example 34-2] | 0.08 | 0.011 | 1.17 |  |
| CNS(=O)(=O)c1ccccc1Nc1nc(Nc2cc(C)cc(C)c2C)ncc1Br [Example 3-16] | 1.1 | 0.048 | 3 |  |
| CCCCc1ccccc1Nc1ncc(Br)c(Nc2ccccc2S(=O)(=O)NC)n1 [Example 3-10] | 0.95 | 0.052 | > 10 |  |

| SMILES | IC50 [1] [µM] | IC50 [2] [µM] | IC50 ([3]; Mus musculus, 4T1) [µM] | IC50 [3] [µM] |
| --- | --- | --- | --- | --- |
| CNS(=O)(=O)c1ccccc1Nc1nc(Nc2cc(F)ccc2OC)ncc1Cl [Example 20-23] | 0.49 | 0.03 | 3 |  |
| CNS(=O)(=O)c1ccccc1Nc1nc(Nc2ccc(OCCCN3CCOCC3)cc2OC)ncc1Br [Example 3-70] | 0.02 | 0.0035 | 0.13 |  |
| CNS(=O)(=O)c1ccccc1Nc1nc(Nc2cc(OC3CCNCC3)ccc2OC)ncc1Br [Example 3-78] | > 10 | 0.01 | 0.22 |  |
| CNS(=O)(=O)c1ccccc1Nc1nc(Nc2ccc(N3CCC(NC(C)=O)C3)cc2OC)ncc1Cl (stereo not drawn) [Example 20-5] | 0.87 | 0.0068 | 1.46 |  |
| CNC(=O)c1c(C)cccc1Nc1nc(Nc2ccc(N3CCC(N4CCCCC4)CC3)cc2OC)ncc1Cl [Example 10-2] | 0.9 | 0.026 | 1.06 |  |
| CCNC(=O)c1ccccc1Nc1nc(Nc2ccc(N3CCN(C)CC3)cc2OC)ncc1Cl [Example 9-2] | 0.5 | 0.015 | 0.81 |  |
| CNS(=O)(=O)c1ccccc1Nc1nc(Nc2ccccc2OC(F)F)ncc1Cl [Example 20-4] | 0.58 | 0.023 | 1.9 |  |
| CNS(=O)(=O)c1ccccc1Nc1nc(Nc2cc(Cl)ccc2OC)ncc1Br [Example 3-52] | 0.42 | 0.029 | 2 |  |
| CCS(=O)(=O)c1ccccc1Nc1nc(Nc2ccc(N3CCC(N4CCOCC4)CC3)cc2OC)ncc1Cl [Example 27-4] | 0.1 | 0.011 | 0.27 |  |
| CNS(=O)(=O)c1ccccc1Nc1nc(Nc2cc(-c3ccccn3)ccc2OC)ncc1Br [Example 3-67] | 0.38 | 0.006 | 0.39 |  |
| CCC(CC)S(=O)(=O)c1ccccc1Nc1nc(Nc2ccc(N3CCN(C(C)=O)CC3)cc2OC)ncc1Cl [Example 29-3] | 0.1 | 0.0056 | 0.99 |  |
| CNS(=O)(=O)c1ccccc1Nc1nc(Nc2cc(OC)ccc2C)ncc1Br [Example 3-3] | 0.14 | 0.0091 | 0.8 |  |
| CNS(=O)(=O)c1ccccc1Nc1nc(Nc2ccc(OC3CCNCC3)cc2OC)ncc1Br [Example 3-79] | 1.3 | 0.005 | 0.12 |  |
| COc1cc(N2CCC(N3CCCC3)CC2)ccc1Nc1ncc(Cl)c(Nc2ccccc2S(=O)(=O)C(C)C)n1 [Example 28-9] | 0.5 | 0.0031 | 0.36 |  |
| COc1cc(NC(C)(C)CO)ccc1Nc1ncc(Cl)c(Nc2ccccc2S(=O)(=O)NC(C)C)n1 [Example 19-23] | 0.7 | 0.0064 | 0.71 |  |
| COc1cc(N2CCC(C(N)=O)CC2)ccc1Nc1ncc(Cl)c(Nc2ccccc2S(=O)(=O)C(C)C)n1 [Example 28-15] | 0.5 | 0.01 | 0.69 |  |
| CCS(=O)(=O)c1ccccc1Nc1nc(Nc2ccc(-n3cncn3)cc2OC)ncc1Cl [Example 27-3] | > 10 | 0.0063 | 0.56 |  |
| COc1cc(N2CCC(N3CCNCC3)CC2)ccc1Nc1ncc(Cl)c(Nc2ccccc2S(=O)(=O)C(C)C)n1 [Example 28-25] | 0.04 | 0.0039 | 0.13 |  |
| CNS(=O)(=O)c1ccccc1Nc1nc(Nc2ccc(C)cc2F)ncc1Br [Example 3-4] | 0.53 | 0.032 | 2 |  |
| CCCS(=O)(=O)c1ccccc1Nc1nc(Nc2ccc(N3CCC(CO)CC3)cc2OC)ncc1Cl [Example 26-27] | 0.6 | 0.0048 |  | 1.49 |
| COc1cc(N2CCOCC2)ccc1Nc1ncc(Cl)c(Nc2ccccc2S(=O)(=O)c2ccccc2)n1 [Example 34-6] | > 10 | 0.014 | 3 |  |
| CNC(=O)c1cc(N2CCC(N3CCCCC3)CC2)ccc1Nc1nc(Nc2ccc(F)cc2OC)ncc1Cl [Example 16-4] | > 10 | 0.0095 | 0.92 |  |
| CNC(=O)c1ccccc1Nc1nc(Nc2ccc(N3CCC(C(N)=O)CC3)cc2OC)ncc1Cl [Example 7-13] | 0.8 | 0.0055 | 1.22 |  |
| COc1cc(OCCN2CCN(C)CC2)ccc1Nc1ncc(Cl)c(Nc2ccccc2S(=O)(=O)NC(C)C)n1 [Example 19-30] | 0.06 | < 0.001 | 0.1 |  |
| CCCS(=O)(=O)c1ccccc1Nc1nc(Nc2ccc(N3CC(C)N(C(C)=O)C(C)C3)cc2OC)ncc1Cl (stereo not drawn) [Example 26-7] | 0.5 | 0.011 | 0.95 |  |
| CCOc1ccc(OCC)c(Nc2ncc(Br)c(Nc3ccccc3S(=O)(=O)NC)n2)c1 [Example 3-55] | > 10 | 0.034 | 3 |  |
